A short description of this series: activity coefficient (dimensionless); of the first substance listed, at infinite dilution; xn = mol fraction of the nth substance listed. The settings on record: Gas, Chromatography, x1 = 0.

The record followed here is the NIST ThermoML archive (doi:10.1016/j.fluid.2006.06.024).

± gives the expanded uncertainty stated by the source.

For the molecule `C=CC=C` [1,3-butadiene] + CO, the activity coefficient reads like this: (374 K) 5 ± 0.2; (393.3 K) 4.7 ± 0.2; (412.5 K) 4.2 ± 0.2.

`C=CCC` [1-butene] + CO: the activity coefficient runs as follows: (374 K) 7 ± 0.3; (394.8 K) 6.1 ± 0.3; (412.5 K) 5.6 ± 0.3.

On to `C=C(C)C` [2-methylpropene] + CO, for which the activity coefficient came out at 6.5 ± 0.3 (374 K), 6 ± 0.3 (393.3 K) and 5.4 ± 0.3 (412.5 K).

Turning to `C/C=C/C` [(E)-2-butene] + CO, the activity coefficient (375.2 K) is 7.3 ± 0.3, the activity coefficient (394.8 K) was determined as 6.6 ± 0.3 and the activity coefficient (412.6 K) was found to be 6 ± 0.3.
